Source: the CheMixHub viscosity set

Assay: xn = mol fraction of the nth substance listed

Clc1cccc2ccccc12 + CCCCO
viscosity [mPa·s], 101.33 kPa
Settings	x1 = 0.1002	x1 = 0.1997	x1 = 0.2969	x1 = 0.4016	x1 = 0.5004	x1 = 0.599	x1 = 0.6949	x1 = 0.8006	x1 = 0.8969
298.15 K	2.486	2.447	2.383	2.376	2.379	2.43	2.491	2.591	2.697
303.15 K	2.176	2.149	2.11	2.102	2.109	2.153	2.207	2.301	2.414
308.15 K	1.927	1.894	1.865	1.854	1.864	1.914	1.977	2.059	2.173

CCc1ccccc1 + C1CCCCC1
303.15 K, 101 kPa
Settings	viscosity [mPa·s]
x2 = 0.1	0.5951
x2 = 0.199	0.5943
x2 = 0.2994	0.5972
x2 = 0.3986	0.6025
x2 = 0.5008	0.6166
x2 = 0.5984	0.6366
x2 = 0.7004	0.6596
x2 = 0.798	0.7008
x2 = 0.9002	0.7571

CC1=CCC(=C(C)C)CC1 + Brc1ccccc1
viscosity [mPa·s], 101 kPa
Settings	x1 = 0.0687	x1 = 0.1424	x1 = 0.2216	x1 = 0.307	x1 = 0.3992	x1 = 0.4992	x1 = 0.6079	x1 = 0.7266	x1 = 0.8567
303.15 K	0.993	1	1.011	1.023	1.032	1.036	1.033	1.023	1.01
308.15 K	0.942	0.948	0.957	0.967	0.975	0.979	0.973	0.962	0.947
313.15 K	0.893	0.897	0.905	0.913	0.919	0.922	0.915	0.903	0.887

Clc1ccccc1 + CN1CCCC1=O
viscosity [mPa·s], 101 kPa
Settings	x2 = 0.1055	x2 = 0.2097	x2 = 0.3127	x2 = 0.4144	x2 = 0.5149	x2 = 0.6142	x2 = 0.7124	x2 = 0.8094	x2 = 0.9052
303.15 K	0.8395	0.9497	1.057	1.153	1.242	1.322	1.39	1.455	1.508
308.15 K	0.7814	0.8809	0.9724	1.059	1.14	1.207	1.267	1.323	1.366
313.15 K	0.737	0.8284	0.9144	0.9933	1.067	1.132	1.187	1.24	1.282
318.15 K	0.6786	0.7611	0.8372	0.9111	0.9802	1.04	1.093	1.137	1.175

CCc1ccccc1 + CCCCCCCCCCO
viscosity [mPa·s], 101 kPa
Settings	298.15 K	308.15 K
x1 = 0.0666	9.53	6.54
x1 = 0.1392	7.494	5.177
x1 = 0.1932	6.24	4.343
x1 = 0.2642	4.904	3.44
x1 = 0.3355	3.841	2.703
x1 = 0.3936	3.152	2.225
x1 = 0.4483	2.623	1.883
x1 = 0.5238	2.056	1.499
x1 = 0.598	1.632	1.206
x1 = 0.6621	1.35	1.023
x1 = 0.7309	1.118	0.863
x1 = 0.7953	0.951	0.744
x1 = 0.8668	0.802	0.659
x1 = 0.9396	0.693	0.597

Clc1cccc2ccccc12 + c1ccccc1
viscosity [mPa·s], 101.33 kPa
Settings	x1 = 0.0989	x1 = 0.2022	x1 = 0.3275	x1 = 0.3981	x1 = 0.5035	x1 = 0.5982	x1 = 0.7022	x1 = 0.7973	x1 = 0.8976
298.15 K	0.655	0.792	0.96	1.078	1.294	1.475	1.731	2.022	2.38
303.15 K	0.609	0.727	0.903	0.994	1.188	1.349	1.586	1.833	2.126
308.15 K	0.571	0.679	0.843	0.922	1.098	1.242	1.452	1.669	1.928

COC(C)(C)C + Cc1ccccc1
298.15 K, 101 kPa
Settings	viscosity [mPa·s]
x1 = 0.05	0.541
x1 = 0.1	0.528
x1 = 0.2001	0.505
x1 = 0.3002	0.479
x1 = 0.4001	0.458
x1 = 0.5001	0.438
x1 = 0.6001	0.419
x1 = 0.6998	0.398
x1 = 0.8	0.383
x1 = 0.8999	0.372
x1 = 0.9502	0.365
